According to patent publication US20110217265A1, “Screening for Inhibitors of HCV Amphipathic Helix (AH) Function” (priority 2008, published 2011):

What was measured:
[1] = biological target: genotype 1b 4BAH2 (Hepatitis C virus genotype 1b, UniProt Q9WMX2); experiment: QCM-D of 4BAH2 membrane association with POPC bilayer, genotype 1b; type: binding; set-up: purchased Anaspec Corporation (San Jose, Calif., USA)
Method: (§1) Quartz Crystal Microbalance-Dissipation (QCM-D). Adsorption kinetics and the properties of the adsorbed layer were studied using a Q-Sense E4, multiple channel system (Q-Sense AB, Gothenburg, Sweden). The samples are introduced using a peristaltic pump with flow rate of 0.1 mL·min^−1. AT-cut quartz crystals (Q-Sense) of 14 mm in diameter coated with a SiOx layer were used for all vesicle interaction and adsorption experiments. Each QCM crystal was treated with oxygen plasma at ˜80 watts for 3 min prior to measurement (March Plasmod Plasma Etcher, March Instruments, California, USA). Each crystal was initially driven near its resonance frequency as indicated by a maximum in the current. To capture the characteristic dissipation, the drive circuit was short-circuited and the exponential decay of the crystal oscillation was recorded and analyzed, yielding the frequency and dissipation changes at 5, 15, 25, 35, 45, 55, and 65 MHz. The temperature of the Q-Sense cell was set at 25.0° C. and accurately controlled by a Peltier element in the cell with fluctuation smaller than ±0.05° C. All experiments were repeated at least three times, with a standard deviation of less than 2%.

[2] = biological target: T1, genotype 2a 4BAH2 (Hepatitis C virus genotype 2a, UniProt Q99IB8); experiment: DLS assay of 4BAH2-induced POPC lipid vesicle aggregation, genotype 2a peptide; type: biochemical; set-up: purchased Anaspec Corporation (San Jose, Calif., USA); host or cells: chemical synthesis; settings: POPC vesicles
T1 sequence (Q99IB8 1758-1780): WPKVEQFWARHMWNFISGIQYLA
Method: Small Unilamellar Vesicle Preparation. Vesicles of 1-palmitoyl-2-oleoyl-sn-glycero-3-phosphocholine (POPC) (Avanti Polar Lipids, Alabaster, Ala., USA) with well-defined size distributions were prepared by the extrusion method. Throughout the experiments, we used a phosphate buffered saline (PBS) buffer (10 mM, pH 7.5 and 150 mM NaCl) in […] MilliQ water (Millipore, Oregon, USA). Extruded vesicles (referred to simply as vesicles) were prepared in the following manner. Lipid films were prepared by first drying the as-supplied lipids dissolved in chloroform under a gentle stream of nitrogen at room temperature. Then the resulting lipid film was stored under vacuum for at least 5 hr in order to remove residual chloroform. Vesicles were prepared by first swelling the lipid film in aqueous solution then vortexing periodically for 5 min. […]
Dynamic Light Scattering. Dynamic light scattering (DLS) was performed using a doubled, Nd:YAG laser (model 532 DPSS, Coherent Laser Group, Santa Clara, Calif.) with a wavelength, λ, of […] and a Brookhaven digital autocorrelator, and analyzed by digital autocorrelator software (Brookhaven Instruments Corporation, New York, USA). […] DLS results were analyzed to give an intensity-weighted size distribution using a discrete Laplace inversion routine. […]

[3] = test system: Huh7.5 cells; experiment: Alamar Blue cell viability assay; type: cell-based, human; settings: in parallel with replication assays, 72 hr
[4] = biological target: T1, genotype 2a 4BAH2; experiment: QCM-D of 4BAH2 membrane association with POPC bilayer, genotype 2a; type: binding; set-up: purchased Anaspec Corporation (San Jose, Calif., USA)
Method: as §1

Sequence of genotype 1b 4BAH2 (Q9WMX2 1754-1776): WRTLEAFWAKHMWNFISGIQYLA

CC(C)CN(C)c1nc(N)c(C(=O)NC(=N)N)nc1Cl [C4, 3-amino-N-carbamimidoyl-6-chloro-5-(isobutyl(methyl)amino)pyrazine-2-carboxamide]
Effect on genotype 1b 4BAH2 membrane association (QCM-D) [1]: no effect | Inhibition of genotype 2a 4BAH2-induced vesicle aggregation (DLS) [2]: essentially abrogated | Cellular toxicity (Alamar Blue viability) [3]: No significant cellular toxicity | Effect on genotype 2a 4BAH2 membrane association (QCM-D) [4]: no effect
